Inconclusive results and toxic doses are left out.

This experiment concerns P388 leukemia ip, CD2F1 mice, survival T/C. Kind of experiment: NCI In Vivo Anticancer Drug Screen. Data for tumor model P388 Leukemia (intraperitoneal) in CD2F1 (CDF1) mice. To be noted: endpoint: median survival time, higher = longer survival. An outline of the steps:
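Mice carrying the transplanted tumor received test compound or vehicle. Survival was recorded in each group, and the value is the treated-group measurement divided by that of the vehicle-treated control group.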

Where [1] appears, read: dose: 60.0 mg/kg/injection, schedule: Q01DX005 (ip), vehicle: Klucel (hydroxypropylcellulose) (HPC).
Setting [2] is: dose: 120.0 mg/kg/injection, schedule: Q01DX005 (ip), vehicle: Klucel (hydroxypropylcellulose) (HPC).
The mark [3] stands for this setting: dose: 240.0 mg/kg/injection, schedule: Q01DX005 (ip), vehicle: Klucel (hydroxypropylcellulose) (HPC).
Setting [4] is: dose: 60.0 mg/kg/injection, schedule: Q01DX005 (ip), vehicle: saline with Tween-80.

Consider `O=C(N/N=C/c1ccccc1O)C(=O)NC1CC1`, for which the T/C is 92 % of control (dose: 50.0 mg/kg/injection, schedule: Q01DX009 (ip), vehicle: saline with Tween-80); 91 % of control (dose: 100.0 mg/kg/injection, schedule: Q01DX009 (ip), vehicle: saline with Tween-80); 91 % of control (dose: 200.0 mg/kg/injection, schedule: Q01DX009 (ip), vehicle: saline with Tween-80).

With `CC(C)(C)OC(=O)NCS(=O)(=O)N(Cc1ccccc1)Cc1ccccc1`, the T/C (dose: 50.0 mg/kg/injection, schedule: Q01DX005 (ip), vehicle: Klucel (hydroxypropylcellulose) (HPC)) was 102 % of control; the T/C (dose: 100.0 mg/kg/injection, schedule: Q01DX005 (ip), vehicle: Klucel (hydroxypropylcellulose) (HPC)) was 101 % of control; the T/C (dose: 200.0 mg/kg/injection, schedule: Q01DX005 (ip), vehicle: Klucel (hydroxypropylcellulose) (HPC)) was 97 % of control.

`C=C(C)CC1=C(C)C(=O)C(C)=C(C)C1=O`: the T/C is 110 % of control (dose: 75.0 mg/kg/injection, schedule: Q04DX003 (ip), vehicle: Klucel (hydroxypropylcellulose) (HPC)); 105 % of control (dose: 150.0 mg/kg/injection, schedule: Q04DX003 (ip), vehicle: Klucel (hydroxypropylcellulose) (HPC)); 122 % of control (dose: 300.0 mg/kg/injection, schedule: Q04DX003 (ip), vehicle: Klucel (hydroxypropylcellulose) (HPC)).

Regarding `CCOC(=O)c1n[nH]c(C)c1CC(N)c1ccccc1` (centres undefined), the T/C runs as follows: (dose: 12.5 mg/kg/injection, schedule: Q01DX005 (ip), vehicle: saline with Tween-80) 100 % of control; (dose: 25.0 mg/kg/injection, schedule: Q01DX005 (ip), vehicle: saline with Tween-80) 96 % of control.

Take `Clc1ccc(N2CCOCC2)nn1`: the T/C is, setting by setting: (dose: 50.0 mg/kg/injection, schedule: Q01DX009 (ip), vehicle: saline) 104 % of control; (dose: 100.0 mg/kg/injection, schedule: Q01DX009 (ip), vehicle: saline) 88 % of control; (dose: 200.0 mg/kg/injection, schedule: Q01DX009 (ip), vehicle: saline) 100 % of control.

As for `CCOC(=O)C1=C(C#N)C(C(=O)OCC)c2ncccc21` (centres undefined), the T/C was 93 % of control (dose: 25.0 mg/kg/injection, schedule: Q01DX009 (ip), vehicle: suspension in saline); 93 % of control (dose: 50.0 mg/kg/injection, schedule: Q01DX009 (ip), vehicle: suspension in saline); 100 % of control (dose: 100.0 mg/kg/injection, schedule: Q01DX009 (ip), vehicle: suspension in saline); 92 % of control (dose: 200.0 mg/kg/injection, schedule: Q01DX009 (ip), vehicle: suspension in saline).

Consider `OC1OCC2CC3c4cc5c(cc4CCN3CC21)OCO5` (centres undefined), for which the T/C is 103 % of control (dose: 0.63 mg/kg/injection, schedule: Q01DX009 (ip), vehicle: distilled water + Tween-80); 109 % of control (dose: 1.25 mg/kg/injection, schedule: Q01DX009 (ip), vehicle: distilled water + Tween-80); 108 % of control (dose: 2.5 mg/kg/injection, schedule: Q01DX009 (ip), vehicle: distilled water + Tween-80); 100 % of control (dose: 5.0 mg/kg/injection, schedule: Q01DX009 (ip), vehicle: distilled water + Tween-80); 103 % of control (dose: 10.0 mg/kg/injection, schedule: Q01DX009 (ip), vehicle: distilled water + Tween-80); 103 % of control (dose: 20.0 mg/kg/injection, schedule: Q01DX009 (ip), vehicle: distilled water + Tween-80).

Take `CC1(N2CCCCC2)C(=O)NC(=O)N(C2CCCCC2)C1=O` (centres undefined): the T/C by setting is: under setting [1], 88 % of control; under setting [2], 95 % of control; under setting [3], 89 % of control.

With `C=COc1ccccc1C1=NC(C(C)(C)C)(C(C)(C)C)P(OC)(OC)(OC)O1`, the T/C (dose: 100.0 mg/kg/injection, schedule: Q04DX003 (ip), vehicle: saline) was 102 % of control; the T/C (dose: 200.0 mg/kg/injection, schedule: Q04DX003 (ip), vehicle: saline) is 108 % of control; the T/C (dose: 400.0 mg/kg/injection, schedule: Q04DX003 (ip), vehicle: saline) is 100 % of control.

`NCCN.NCCN.[Cl-].[O]=[Os+2]=[O]`: the T/C reads like this: under setting [4], 118 % of control; (dose: 120.0 mg/kg/injection, schedule: Q01DX005 (ip), vehicle: saline with Tween-80) 114 % of control.

On to `N#CC1CCCCC1C1(C#N)CCCCC1Cc1nccc2ccccc12` (centres undefined), for which the T/C (dose: 100.0 mg/kg/injection, schedule: Q04DX003 (ip), vehicle: saline with Tween-80) was 95 % of control; the T/C (dose: 200.0 mg/kg/injection, schedule: Q04DX003 (ip), vehicle: saline with Tween-80) was 100 % of control; the T/C (dose: 400.0 mg/kg/injection, schedule: Q04DX003 (ip), vehicle: saline with Tween-80) was 86 % of control.

In the case of `CCOC(=O)/C=C(\C)Nc1cccc2c(N/C(C)=C/C(=O)OCC)cccc12`, the T/C (dose: 50.0 mg/kg/injection, schedule: Q01DX005 (ip), vehicle: saline with Tween-80) is 105 % of control; the T/C (dose: 100.0 mg/kg/injection, schedule: Q01DX005 (ip), vehicle: saline with Tween-80) is 100 % of control; the T/C (dose: 200.0 mg/kg/injection, schedule: Q01DX005 (ip), vehicle: saline with Tween-80) was 98 % of control.

Consider `S=P(N1CCCC1)(N1CC1)N1CC1`, for which the T/C reads like this: (dose: 2.2 mg/kg/injection, schedule: Q01DX009 (ip), vehicle: saline) 111 % of control; (dose: 3.3 mg/kg/injection, schedule: Q01DX009 (ip), vehicle: saline) 155 % of control; (dose: 7.5 mg/kg/injection, schedule: Q01DX009 (ip), vehicle: saline) 177 % of control; (dose: 11.0 mg/kg/injection, schedule: Q04DX003 (ip), vehicle: saline with Tween-80) 104 % of control; (dose: 25.0 mg/kg/injection, schedule: Q04DX003 (ip), vehicle: saline with Tween-80) 200 % of control; (dose: 37.5 mg/kg/injection, schedule: Q04DX003 (ip), vehicle: saline with Tween-80) 90 % of control.

In the case of `c1ccc(C2CO2)cc1` (centres undefined), the T/C is 106 % of control (dose: 100.0 mg/kg/injection, schedule: Q01DX001 (ip), vehicle: Klucel (hydroxypropylcellulose) (HPC)); 100 % of control (dose: 200.0 mg/kg/injection, schedule: Q01DX001 (ip), vehicle: Klucel (hydroxypropylcellulose) (HPC)); 102 % of control (dose: 400.0 mg/kg/injection, schedule: Q01DX001 (ip), vehicle: Klucel (hydroxypropylcellulose) (HPC)).

Take `O=C1CC2(O)CSc3nc(=O)cc(n32)N1` (centres undefined): the T/C was 107 % of control (dose: 50.0 mg/kg/injection, schedule: Q01DX005 (ip), vehicle: saline); 106 % of control (dose: 100.0 mg/kg/injection, schedule: Q01DX005 (ip), vehicle: saline); 94 % of control (dose: 200.0 mg/kg/injection, schedule: Q01DX005 (ip), vehicle: saline).

With `CC1(C)CC(C)(OC(=O)c2ccc(Cl)cc2)[N+]([O-])=N1` (centres undefined), the T/C was 98 % of control (dose: 12.5 mg/kg/injection, schedule: Q01DX009 (ip), vehicle: other); 98 % of control (dose: 25.0 mg/kg/injection, schedule: Q01DX009 (ip), vehicle: other); 106 % of control (dose: 50.0 mg/kg/injection, schedule: Q01DX009 (ip), vehicle: other); 89 % of control (dose: 100.0 mg/kg/injection, schedule: Q01DX009 (ip), vehicle: other); 89 % of control (dose: 200.0 mg/kg/injection, schedule: Q01DX009 (ip), vehicle: other).

For `CN=S(=O)(c1ccccc1)C1(C)CC(C)=C(C)CS1=O` (centres undefined), the T/C was 94 % of control (dose: 60.0 mg/kg/injection, schedule: Q01DX005 (ip), vehicle: saline); 97 % of control (dose: 120.0 mg/kg/injection, schedule: Q01DX005 (ip), vehicle: saline); 103 % of control (dose: 240.0 mg/kg/injection, schedule: Q01DX005 (ip), vehicle: saline).

Take `COc1nc(Cl)cn(C)c1=O`: the T/C by setting is: (dose: 15.0 mg/kg/injection, schedule: Q01DX005 (ip), vehicle: saline with Tween-80) 101 % of control; (dose: 30.0 mg/kg/injection, schedule: Q01DX005 (ip), vehicle: saline with Tween-80) 98 % of control; under setting [1], 95 % of control; under setting [4], 107 % of control; under setting [2], 106 % of control.

Turning to `CC(C)(C)c1noc2c1C(=O)c1ccccc1-2`, the T/C is 99 % of control under setting [1], 91 % of control under setting [2] and 96 % of control under setting [3].

On to `CN(C)c1nc(=O)c(-c2ccccc2)c(-c2ccccc2)o1`, for which the T/C is 103 % of control (dose: 100.0 mg/kg/injection, schedule: Q04DX002 (ip), vehicle: Klucel (hydroxypropylcellulose) (HPC)); 106 % of control (dose: 200.0 mg/kg/injection, schedule: Q04DX002 (ip), vehicle: Klucel (hydroxypropylcellulose) (HPC)); 103 % of control (dose: 400.0 mg/kg/injection, schedule: Q04DX002 (ip), vehicle: Klucel (hydroxypropylcellulose) (HPC)).

Source of the values: PubChem BioAssay AID330 (DTP/NCI, 2004).
